± gives the expanded uncertainty stated by the source.
Legend:
[1] = 101.33 kPa, Liquid; for viscosity: Falling or rolling sphere viscometry
[2] = xn = mol fraction of the nth substance listed; conditions: 101.33 kPa, Liquid; for viscosity: Falling or rolling sphere viscometry

CCO [ethanol]
[1]
Conditions | mass density [kg/m3] | viscosity [mPa·s]
293.15 K | 788.24 ± 0.62 | 1.16 ± 0.011
303.15 K | 780.73 ± 0.63 | 0.968 ± 0.009
313.15 K | 771.98 ± 0.64 | 0.81 ± 0.008

CO [methanol] + CCOC(=O)C(C)CC
[2], x2 = 0
Conditions | mass density [kg/m3] | viscosity [mPa·s]
293.15 K | 791.08 ± 0.63 | 0.577 ± 0.005
303.15 K | 781.95 ± 0.64 | 0.512 ± 0.005
313.15 K | 772.01 ± 0.65 | 0.447 ± 0.004

CCOC(=O)C(C)CC (configuration not stated) [ethyl 2-methylbutanoate] + CO
[2], x1 = 1
Conditions | mass density [kg/m3] | viscosity [mPa·s]
293.15 K | 869.73 ± 0.57 | 0.831 ± 0.008
303.15 K | 861.48 ± 0.58 | 0.723 ± 0.007
313.15 K | 853.41 ± 0.58 | 0.635 ± 0.006

CCCO [propan-1-ol] + CCOC(=O)C(C)CC
[2], x2 = 0
Conditions | mass density [kg/m3] | viscosity [mPa·s]
293.15 K | 803.64 ± 0.61 | 2.188 ± 0.021
303.15 K | 795.48 ± 0.62 | 1.713 ± 0.016
313.15 K | 787.02 ± 0.63 | 1.378 ± 0.013

CCCCCC(=O)OCC [ethyl hexanoate] + CCCO
[2], x1 = 1
Conditions | mass density [kg/m3] | viscosity [mPa·s]
293.15 K | 879.01 ± 0.58 | 0.816 ± 0.008
303.15 K | 869.31 ± 0.57 | 0.704 ± 0.007
313.15 K | 863.28 ± 0.56 | 0.614 ± 0.006

CCCCCC(=O)OCC [ethyl hexanoate] + CO
[2], x1 = 1
Conditions | mass density [kg/m3] | viscosity [mPa·s]
293.15 K | 879.01 ± 0.58 | 0.816 ± 0.008
303.15 K | 869.31 ± 0.57 | 0.704 ± 0.007
313.15 K | 863.28 ± 0.56 | 0.614 ± 0.006

CCCCCC(=O)OCC [ethyl hexanoate] + CCO
[2], x1 = 1
Conditions | mass density [kg/m3] | viscosity [mPa·s]
293.15 K | 879.01 ± 0.58 | 0.816 ± 0.008
303.15 K | 869.31 ± 0.57 | 0.704 ± 0.007
313.15 K | 863.28 ± 0.56 | 0.614 ± 0.006

CO [methanol]
[1]
Conditions | mass density [kg/m3] | viscosity [mPa·s]
293.15 K | 791.08 ± 0.63 | 0.577 ± 0.005
303.15 K | 781.95 ± 0.64 | 0.512 ± 0.005
313.15 K | 772.01 ± 0.65 | 0.447 ± 0.004

CCCCCC(=O)OCC [ethyl hexanoate]
[1]
Conditions | mass density [kg/m3] | viscosity [mPa·s]
293.15 K | 879.01 ± 4 | 0.816 ± 0.008
303.15 K | 869.31 ± 4 | 0.704 ± 0.007
313.15 K | 863.28 ± 4 | 0.614 ± 0.006

CCOC(=O)C(C)CC (configuration not stated) [ethyl 2-methylbutanoate] + CCO
[2], x1 = 1
Conditions | mass density [kg/m3] | viscosity [mPa·s]
293.15 K | 869.73 ± 0.57 | 0.831 ± 0.008
303.15 K | 861.48 ± 0.58 | 0.723 ± 0.007
313.15 K | 853.41 ± 0.58 | 0.635 ± 0.006

CCOC(=O)C(C)CC (configuration not stated) [ethyl 2-methylbutanoate] + CCCO
[2], x1 = 1
Conditions | mass density [kg/m3] | viscosity [mPa·s]
293.15 K | 869.73 ± 0.57 | 0.831 ± 0.008
303.15 K | 861.48 ± 0.58 | 0.723 ± 0.007
313.15 K | 853.41 ± 0.58 | 0.635 ± 0.006

CCCO [propan-1-ol]
[1]
Conditions | mass density [kg/m3] | viscosity [mPa·s]
293.15 K | 803.64 ± 0.61 | 2.188 ± 0.021
303.15 K | 795.48 ± 0.62 | 1.713 ± 0.016
313.15 K | 787.02 ± 0.63 | 1.378 ± 0.013

CCO [ethanol] + CCCCCC(=O)OCC
[2], x2 = 0
Conditions | mass density [kg/m3] | viscosity [mPa·s]
293.15 K | 788.24 ± 0.62 | 1.16 ± 0.011
303.15 K | 780.73 ± 0.63 | 0.968 ± 0.009
313.15 K | 771.98 ± 0.64 | 0.81 ± 0.008

CO [methanol] + CCCCCC(=O)OCC
[2], x2 = 0
Conditions | mass density [kg/m3] | viscosity [mPa·s]
293.15 K | 791.08 ± 0.63 | 0.577 ± 0.005
303.15 K | 781.95 ± 0.64 | 0.512 ± 0.005
313.15 K | 772.01 ± 0.65 | 0.447 ± 0.004

CCCO [propan-1-ol] + CCCCCC(=O)OCC
[2], x2 = 0
Conditions | mass density [kg/m3] | viscosity [mPa·s]
293.15 K | 803.64 ± 0.61 | 2.188 ± 0.021
303.15 K | 795.48 ± 0.62 | 1.713 ± 0.016
313.15 K | 787.02 ± 0.63 | 1.378 ± 0.013

CCO [ethanol] + CCOC(=O)C(C)CC
[2], x2 = 0
Conditions | mass density [kg/m3] | viscosity [mPa·s]
293.15 K | 788.24 ± 0.62 | 1.16 ± 0.011
303.15 K | 780.73 ± 0.63 | 0.968 ± 0.009
313.15 K | 771.98 ± 0.64 | 0.81 ± 0.008

CCOC(=O)C(C)CC (configuration not stated) [ethyl 2-methylbutanoate]
[1]
Conditions | mass density [kg/m3] | viscosity [mPa·s]
293.15 K | 869.73 ± 0.57 | 0.831 ± 0.008
303.15 K | 861.48 ± 0.58 | 0.723 ± 0.007
313.15 K | 853.41 ± 0.58 | 0.635 ± 0.006
